Read-outs that look alike come from different tables or passages of the source.
Legend:
β1-Rezeptoren [1] = assay: Isoproterenol antagonism, lipolysis in epididymal fat; conditions: Isoproterenolantagonismus, Propranolol = 100; Ratte
[2] = system: elektrischen Flimmerschwelle; assay: Antiarrhythmic effect, rise of the electrical fibrillation threshold; type: in vivo, Meerschweinchen; conditions: for ED50: Cavia porcellus, read-out: ED50, Erhöhung der elektrischen Flimmerschwelle
Excerpt: (§1) Aus diesem Grunde ist die Anwendung von nichtselektiv wirkenden β-Rezeptorenblockern bei Patienten mit obstruktiven Atemwegserkrankungen kontraindiziert. Aber auch die Anwendung der sogenannten kardioselektiven ß-Rezeptorenblocker, z. […] Disposition des Patienten zur Dyspnoe führen bzw. einen Asthmaanfall auslösen können.

β1-Rezeptoren [3] = assay: Isoproterenol antagonism, intestinal peristalsis; conditions: Isoproterenolantagonismus, Propranolol = 100; Kaninchen
β1-Rezeptoren [4] = target: T1, β1-Rezeptoren (Canis lupus familiaris, UniProt P79148); assay: β1 blockade, heart rate and contractility in the whole animal; type: in vivo; conditions: Hund; relative to Propranolol
T1 construct: from tissue; host or cells: dog, whole animal (heart)
T1 sequence (P79148 whole entry): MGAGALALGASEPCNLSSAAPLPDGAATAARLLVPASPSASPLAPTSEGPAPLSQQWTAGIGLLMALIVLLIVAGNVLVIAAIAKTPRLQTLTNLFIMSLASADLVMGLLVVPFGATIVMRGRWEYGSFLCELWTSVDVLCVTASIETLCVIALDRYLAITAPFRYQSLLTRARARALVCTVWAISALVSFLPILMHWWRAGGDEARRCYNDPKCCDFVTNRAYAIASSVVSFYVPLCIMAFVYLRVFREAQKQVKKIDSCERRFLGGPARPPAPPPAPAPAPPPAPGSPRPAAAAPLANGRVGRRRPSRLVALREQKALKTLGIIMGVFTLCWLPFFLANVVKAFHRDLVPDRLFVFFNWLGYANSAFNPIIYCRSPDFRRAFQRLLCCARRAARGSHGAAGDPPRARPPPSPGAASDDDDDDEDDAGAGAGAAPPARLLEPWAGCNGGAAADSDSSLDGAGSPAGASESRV
Excerpt: as §1

β1-Rezeptoren [5] = target: T2, β1-Rezeptoren (Felis catus, UniProt Q9TST6); assay: as above; type: in vivo; conditions: Katze; relative to Propranolol
T2 construct: from tissue; host or cells: cat, whole animal (heart)
T2 sequence (Q9TST6 whole entry): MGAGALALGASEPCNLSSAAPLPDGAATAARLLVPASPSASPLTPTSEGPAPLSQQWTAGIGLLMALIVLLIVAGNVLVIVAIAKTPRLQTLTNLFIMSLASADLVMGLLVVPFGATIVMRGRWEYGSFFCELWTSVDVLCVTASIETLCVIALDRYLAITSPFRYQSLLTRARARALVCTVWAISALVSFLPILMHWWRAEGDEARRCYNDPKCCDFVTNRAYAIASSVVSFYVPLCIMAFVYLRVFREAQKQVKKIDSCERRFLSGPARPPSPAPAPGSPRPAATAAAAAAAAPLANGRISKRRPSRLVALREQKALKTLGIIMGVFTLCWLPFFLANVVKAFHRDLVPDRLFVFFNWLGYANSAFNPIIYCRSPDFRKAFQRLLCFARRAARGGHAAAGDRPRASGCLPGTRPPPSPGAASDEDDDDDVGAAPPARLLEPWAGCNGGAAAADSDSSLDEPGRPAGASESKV
Excerpt: as §1

[6] = target: T3, adrenergen β2-Rezeptoren der Bronchialmuskulatur (Canis lupus familiaris, UniProt P54833); assay: Respiratory minute volume in the anaesthetised dog; type: in vivo; conditions: narkotisierter Hund; 0,1 mg/kg
T3 construct: from tissue; host or cells: dog, whole animal (blood vessels; bronchial muscle in the anaesthetised dog)
T3 sequence (P54833 whole entry): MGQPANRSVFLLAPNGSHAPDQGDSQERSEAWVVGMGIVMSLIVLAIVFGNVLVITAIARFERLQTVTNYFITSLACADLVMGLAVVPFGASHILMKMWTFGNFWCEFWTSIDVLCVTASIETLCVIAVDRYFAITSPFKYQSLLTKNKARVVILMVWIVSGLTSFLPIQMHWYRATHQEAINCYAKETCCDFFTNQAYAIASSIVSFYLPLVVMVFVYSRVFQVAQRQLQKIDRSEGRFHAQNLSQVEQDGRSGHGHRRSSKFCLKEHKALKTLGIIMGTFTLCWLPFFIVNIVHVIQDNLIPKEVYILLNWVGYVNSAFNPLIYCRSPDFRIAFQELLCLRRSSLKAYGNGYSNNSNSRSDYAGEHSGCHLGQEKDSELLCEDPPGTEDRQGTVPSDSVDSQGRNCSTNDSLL
Excerpt: as §1

β2-Rezeptoren der Gefäße [7] = target: T4, β2-Rezeptoren der Gefäße (Felis catus, UniProt Q9TST5); assay: Influence on the blood-pressure-lowering effect of isoproterenol; type: in vivo; conditions: Katze
T4 construct: from tissue; host or cells: cat, whole animal (blood vessels)
T4 sequence (Q9TST5 whole entry): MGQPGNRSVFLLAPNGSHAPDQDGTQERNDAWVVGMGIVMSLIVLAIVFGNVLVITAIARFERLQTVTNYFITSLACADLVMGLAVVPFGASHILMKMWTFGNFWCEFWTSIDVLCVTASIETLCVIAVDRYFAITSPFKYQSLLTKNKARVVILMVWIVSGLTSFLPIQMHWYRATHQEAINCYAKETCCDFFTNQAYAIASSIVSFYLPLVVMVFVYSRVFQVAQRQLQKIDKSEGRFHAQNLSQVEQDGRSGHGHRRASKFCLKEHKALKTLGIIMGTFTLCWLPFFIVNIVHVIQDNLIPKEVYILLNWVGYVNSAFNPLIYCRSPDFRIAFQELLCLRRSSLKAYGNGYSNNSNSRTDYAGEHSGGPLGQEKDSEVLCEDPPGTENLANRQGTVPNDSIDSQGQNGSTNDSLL
Excerpt: as §1

β2-Rezeptoren der Gefäße [8] = target: T5, β2-Rezeptoren der Gefäße (Canis lupus familiaris, UniProt P54833); assay: as above; type: in vivo; conditions: Hund
T5 construct: from tissue; host or cells: dog, whole animal (blood vessels; bronchial muscle in the anaesthetised dog)
T5 sequence (P54833 whole entry): as the sequence (P54833 whole entry) above
Excerpt: as §1

[9] = system: Myokardinfarktmodell der Ratte; assay: Myocardial infarction model, prophylactic oral dosing before coronary ligation; conditions: relative to Propranolol; orale Applikation von 3,6 und 12 mg/kg I über 28 Tage vor Ligatur der A. coronaria sinistra; CPK, GOT, EKG-Veränderungen, relatives Infarktgewicht
[10] = system: adrenergen β2-Rezeptoren der Bronchialmuskulatur; assay: β2 stimulation of bronchial muscle, isolated tracheal muscle and whole animal; conditions: am isolierten Trachealmuskel als auch im Ganztierversuch
Excerpt: as §1

[11] = target: T6, adrenergen β2-Rezeptoren der Bronchialmuskulatur (Cavia porcellus, UniProt Q8K4Z4); assay: Tolerance time to asthma-inducing histamine in the conscious guinea pig; type: in vivo, Meerschweinchen; conditions: read-out: ED50, Verdopplung der Toleranzzeit gegenüber dem asthmaauslösenden Histamin
T6 construct: from tissue; host or cells: conscious guinea pig, whole animal (airways)
T6 sequence (Q8K4Z4 whole entry): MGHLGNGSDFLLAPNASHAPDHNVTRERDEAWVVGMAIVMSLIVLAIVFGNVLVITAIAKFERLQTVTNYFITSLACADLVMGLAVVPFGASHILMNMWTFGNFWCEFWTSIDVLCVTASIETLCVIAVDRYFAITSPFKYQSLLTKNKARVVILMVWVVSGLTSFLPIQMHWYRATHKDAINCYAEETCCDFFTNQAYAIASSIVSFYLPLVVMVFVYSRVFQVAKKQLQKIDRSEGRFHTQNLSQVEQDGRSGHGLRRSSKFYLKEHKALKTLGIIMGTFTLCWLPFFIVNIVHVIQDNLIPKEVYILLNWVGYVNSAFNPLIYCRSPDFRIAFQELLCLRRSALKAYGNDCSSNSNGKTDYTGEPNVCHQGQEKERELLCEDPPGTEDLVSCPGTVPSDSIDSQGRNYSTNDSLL
Excerpt: as §1

[12] = system: spontan hypertensive Ratte; assay: Antihypertensive effect in the spontaneously hypertensive rat; type: in vivo; conditions: fold stronger than Propranolol
Excerpt: as §1

[13] = system: Nikotintremor des Meerschweinchens; assay: Nicotine tremor, antiparkinson effect; type: in vivo, Meerschweinchen; conditions: compared with Trihexylphenidyl (Parkopan)
Excerpt: as §1

in vivo = conditions: mouse, ip
Excerpt: as §1

β2-Rezeptoren der Gefäße [14] = assay: Stimulating effects on vascular β2 receptors, comparison with the known 2,5-dichloro compound; conditions: compared with the 2,4-Dichlor-Verbindung
Excerpt: 1-Phenoxy-3-alkylamino-propanole-(2) sind mehrfach beschrieben worden (DE-PS 2259 489, DE-PS 2213 044, DD-AP 45 360, BE-PS 783 086, NE-PS 6813 616, GD-PS 1148 563, NE-PS 7307 821, DD-AP 93 349, GB-PS 1078 852, BE-PS 746 107). Auch das 1-(2,5-Dichlor-phenoxy )-3-(3,4-dimethoxy-ß-phenethylamino)-propanol-(2) ist bekannt (JA-0 52033 829); es unterscheidet sich in seiner Wirksamkeit gegenüber der erfindungsgemäßen 2,4-Dichlor-Verbindung jedoch dadurch, daß die ausgeprügten stimulierenden Effekte an den β2-Rezeptoren der Gefäße, die eine große Bedeutung für den therapeutischen Einsatz besitzen, fehlen.

With `CC(C)(C)NCC(O)COc1ccc(NC(=O)NC2CCCCC2)cc1` (stereo not shown) [Talinolol, reference compound] the “Stärke der β1-Rezeptorenblockade, Lipolyse (Epiditymalfett)” value (β1-Rezeptoren [1]) was 96, the ED50 [2] was 0.31 mg/kg and the “Stärke der β1-Rezeptorenblockade, Darmperistaltik” value (β1-Rezeptoren [3]) was 35.

In the case of `COc1ccc(CCNCC(O)COc2ccc(Cl)cc2Cl)cc1OC` (stereo not drawn) [I, 1-(2,4-Dichlorphenoxy)-3-(3,4-dimethoxy-β-phenethylamino)-propanol-(2)], the “Stärke der β1-Rezeptorenblockade, Lipolyse (Epiditymalfett)” value (β1-Rezeptoren [1]) is reported as 220, the “Wirksamkeit an den β1-Rezeptoren (Herzfrequenz und Kontralctilität am Ganztier)” value (β1-Rezeptoren [4]) is reported as “nur halb so wirksam wie Propranolol” and the “Wirksamkeit an den β1-Rezeptoren (Herzfrequenz und Kontralctilität am Ganztier)” value (β1-Rezeptoren [5]) is reported as “nur halb so wirksam wie Propranolol”. The Atemzeitvolumen [6] was “isoproterenolähnlichen Vergrößerung des Atemzeitvolumens”, the ED50 ([2]; Meerschweinchen) was 0.22 mg/kg and the “blutdrucksenkender Effekt des Isoproterenols” value (β2-Rezeptoren der Gefäße [7]) was “Verstärkung der Isoproterenolwirkung”. The “blutdrucksenkender Effekt des Isoproterenols” value (β2-Rezeptoren der Gefäße [8]) was “Verstärkung der Isoproterenolwirkung”, the “kardioprotektive Wirkung” value [9] was “zweimal” and the “Stimulation der adrenergen β2-Rezeptoren der Bronchialmuskulatur” value [10] was “nachweisen läßt”. For the same molecule, the ED50 [11] was 0.76 mg/kg, the “antihypertensiver Effekt” value [12] was about 10 and the Antiparkinsonwirkung [13] was “etwa die gleiche Antiparkinsonwirkung wie Trihexylphenidyl”. For the same molecule, the LD50 (in vivo) was 141 mg/kg and the “Stärke der β1-Rezeptorenblockade, Darmperistaltik” value (β1-Rezeptoren [3]) was 100.

For Tachmalin, the “ED50, Erhöhung der elektrischen Flimmerschwelle” value ([2]; Meerschweinchen) was 0,71 mg/kg.

`CC(C)NCC(O)c1ccc(O)c(O)c1` (stereo not shown) [Isoproterenol, reference compound] gave an ED50 [11] of 0.04 mg/kg.

In the case of `CC(C)NCC(O)COc1cccc2ccccc12` (stereo not shown) [Propranolol, reference compound], the ED50 ([2]; Meerschweinchen) is reported as 1.4 mg/kg and the “blutdrucksenkender Effekt des Isoproterenols” value (β2-Rezeptoren der Gefäße [7]) is reported as “aufhebt”.

With `COc1ccc(CCNCC(O)COc2cc(Cl)ccc2Cl)cc1OC` (stereo not shown) [1-(2,5-Dichlor-phenoxy)-3-(3,4-dimethoxy-ß-phenethylamino)-propanol-(2)] the “stimulierende Effekte an den β2-Rezeptoren der Gefäße” value (β2-Rezeptoren der Gefäße [14]) was “fehlen”.

From EP0086256A1, “1-(2,4-Dichlorophenoxy)-3-(3,4-dimethoxy-beta-phenethylamino)-propan-2-0l, processes for its preparation and pharmaceutical compositions containing it” (VEB Arzneimittelwerk Dresden, priority 1981, dated 1983)
